Literature values in US20050175599A1, “Process for producing substance” (Kyowa Hakko Kogyo Co., Ltd., priority 2001, published 2005).

What was measured:
HeLa cells = conditions: ubiquinone added to media; Protoplasma, 184, 214 (1995); cited from earlier work
bovine embryo cells = conditions: ubiquinone added to media; Biol. Reprod., 61, 541 (1999); cited from earlier work
murine fibroblast cells = conditions: ubiquinone added to media; Protoplasma, 184, 214 (1995); cited from earlier work

Measured: effect on cell growth

COC1=C(OC)C(=O)C(C/C=C(\C)CC/C=C(\C)CC/C=C(\C)CC/C=C(\C)CC/C=C(\C)CC/C=C(\C)CC/C=C(\C)CC/C=C(\C)CC/C=C(\C)CCC=C(C)C)=C(C)C1=O [ubiquinone, 2,3-dimethoxy-5-methyl-6-polyprenyl-1,4-benzoquinone]
promotes the growth: all assays above
